The values below come from patent publication US9399028B2, “Treatment of drug resistant cancer” (ROCKEFELLER UNIVERSITY (THE), priority 2012, dated 2016).

Where a name gives a salt, the structure may show the parent alone.

For assay [1], the system named is ApoE promoter fused to ME.1 or ME.2 in MeWo cells. Kind of assay: ApoE promoter activity (luciferase) assay. It counts as cell-based, human. The following applies: 1 μM, 24 hours. From the text:
The ApoE promoter, consisting of a sequence spanning 980 base pairs upstream and 93 base pairs downstream of the ApoE gene, was cloned into a pGL3-Basic vector (E1751, Promega Corporation, Madison, Wis.) upstream of the firefly luciferase gene using NheI and SacI restriction enzymes. Then, multi-enhancer elements 1 (ME.1) and 2 (ME.2) were cloned directly upstream of the ApoE promoter using MluI and […] restriction enzymes. To assess ApoE promoter- and ME.1/ME.2-driven transcriptional activation by LXR agonists, 5×10^4 MeWo cells were seeded into a 24-well plate. The following day, 100 ng of pGL3-ME.1/ME.2-ApoE promoter construct and 2 ng of pRL-CMV renilla luciferase construct (E2261, Promega) were co-transfected into cells in the presence of DMSO, GW3965, or T0901317 at 1 μM, each condition in quadruplicate. To assess transcriptional activation by LXRα or LXRβ, 5×10^4 MeWo cells expressing a control shRNA or shRNA targeting LXRα or LXRβ were seeded into a 24-well plate. […] After 24 hours, cells were lysed, and cell lysate was analyzed for firefly and renilla luciferase activity using the Dual Luciferase Assay System (E1960, Promega) and a Bio-Tek Synergy NEO Microplate Reader. Firefly luciferase signal was normalized to renilla luciferase signal and all data are expressed relative to the luciferase activity ratio measured in the DMSO-treated control cells.

Assay [2] relates to HUVEC recruited by human melanoma cells. The assay is described as follows: Trans-well endothelial recruitment assay. It counts as cell-based. The following applies: for ability of melanoma cells to recruit endothelial cells: MeWo, HT-144, SK-Mel-2, SK-Mel-334.2, 1 μM for 72 hours. Here is the method:
5×10^4 cancer cells were seeded into 24-well plates approximately 24 hours prior to the start of the assay. HUVEC's were grown to 80% confluency and serum starved in EGM-2 media supplemented with 0.2% FBS for 16 hours. HUVEC's were then pulsed with Cell Tracker Red CMTPX dye (C34552, Invitrogen) for 45 minutes. Meanwhile, cancer cells were washed with PBS, 0.5 mL of 0.2% FBS EGM-2 media was added to each well, and a 3.0 μm HTS Fluoroblock insert (351151, BD Falcon, San Jose, Calif.) was placed into each well. 1×10^5 HUVEC's, resuspended in 0.5 mL of starvation media, were seeded into each trans-well insert, and the recruitment assay was allowed to proceed for 16-18 hours at 37° C. For neutralization antibody and/or recombinant protein experiments, antibody/protein was then added to each well at the appropriate concentration as indicated in the figures: 40 μg/mL anti-ApoE 1D7, 40 μg/mL anti-IgG, 100 μM rhApoE3, and 100 μM BSA. Upon completion of the assay, the inserts were processed and analyzed as described for the matrigel invasion assay above (See Matrigel Invasion Assay).
The endothelial recruitment assay was carried out as previously described (Pencheva et al., 2012; Png et al., 2012). Melanoma cells were treated with DMSO, GW3965, T0901317, or Bexarotene at 1 μM for 56 hours, after which 5×10^4 cells were seeded in a 24-well plate in the presence of each drug and allowed to attach for 16 hours prior to starting the assay. HUVEC cells were serum-starved overnight in EGM-2 media containing 0.2% FBS. The following day, 1×10^5 HUVEC cells were seeded into a 3.0 μm HTS Fluoroblock trans-well migration insert (351151, BD Falcon, San Jose, Calif.) fitted into each well containing cancer cells at the bottom. The HUVEC cells were allowed to migrate towards the cancer cells for 20 hours at 37° C., after which the inserts were processed as previously described (Pencheva et al., 2012). For ApoE antibody neutralization experiments, 40 μg/mL 1D7 anti-ApoE blocking antibody (Heart Institute, University of Ottawa, Ottawa, Canada) or 40 μg/mL anti-IgG control antibody (AB-108-C, R&D Systems, Minneapolis, Minn.) was added to each trans-well insert at the start of the assay.
Subsequently, 5×10^4 cancer cells were seeded into 24-well plates in the presence of each drug or DMSO and allowed to attach for 16 hours prior to starting the assay. Human umbilical vein endothelial cells (HUVEC cells) were serum-starved in 0.2% FBS-containing media overnight. The following day, 1×10^5 HUVEC cells were seeded into a 3.0 μm HTS Fluoroblock insert (351151, BD Falcon) fitted into each well containing the cancer cells at the bottom. The HUVEC cells were allowed to migrate towards the cancer cells for 20 hours, after which the inserts were washed in PBS, fixed in 4% PFA, labeled with DAPI, and mounted on slides. The basal side of each insert was imaged using an inverted fluorescence microscope (Zeiss Axiovert 40 CFL) at 5× magnification, and the number of DAPI-positive cells was quantified using ImageJ.

The test system of assay [3] is human melanoma cells (MeWo, MeWo-LM2, A375-LM3, HT-144, SK-Mel-334.2). The assay is described as follows: Tail-vein lung metastatic colonization assay, bioluminescence imaging. It counts as in vivo. As for the experimental part:
After 8 hours, the transfection media was replaced with fresh media. After 48 hours, 1×10^5 cells were injected intravenously into NOD-SCID mice to assess lung metastatic colonization or through intracardiac injection into athymic nude mice to assess systemic metastasis. For cell invasion and endothelial recruitment in vitro assays, the cells were used 96 hours post-transfection.
Melanoma cells used for in vivo metastasis assays were transduced with a stably expressed retroviral construct encoding a luciferase reporter gene (Ponomarev et al., 2004), allowing us to monitor the in vivo progression of melanoma cells by bioluminescence imaging. The following numbers of melanoma cells, resuspended in 100 μL, of PBS, were injected intravenously via the tail-vein: 4×10^4 MeWo cells, 2.5×10^5 HT-144 cells, 2×10^5 SK-Mel-334.2 cells, 5×10^4B16F10 cells, and 1×10^5 YUMM cells. The MeWo, HT-144, and SK-Mel-334.2 cells were injected into 6-8 week-old sex-matched NOD scid mice, while the B16F10 and YUMM cells were injected into 6-8 week-old sex-matched C57BL/6 mice. In all experiments assessing at the effects of GW3965 on metastasis formation, mice were pre-treated on a control diet or a GW3965-supplemented diet (20 mg/kg) for 10 days. To assess the effect of GW3965 treatment on brain metastasis, 1×10^5 MeWo brain-metastatic derivatives were injected intracardially into athymic nude mice. Immediately following injection, mice were randomly assigned to a control diet or GW3965-supplemented diet (100 mg/kg). To determine whether oral delivery of GW3965 can inhibit the progression of incipient metastasis, NOD Scid mice were intravenously injected with 4×10^4 MeWo cells and the cells were allowed to colonize the lungs for 42 days, after which mice were blindedly assigned to a control diet or a GW3965-supplemented diet (100 mg/kg) treatment.

`O=C(O)Cc1cccc(OCCCN(Cc2cccc(C(F)(F)F)c2Cl)CC(c2ccccc2)c2ccccc2)c1` [GW3965 2, 3-[3-[N-(2-Chloro-3-trifluoromethylbenzyl)-(2,2-diphenylethyl)amino]propyloxy]phenylacetic acid hydrochloride]: the “activity of luciferase reporter with ApoE promoter fused to ME.1 or ME.2” value in assay [1] is reported as “enhance”. The “ability of melanoma cells to recruit endothelial cells” value in assay [2] is recorded as “consistently suppressed”. Also, the endothelial recruitment result in assay [2] (parental MeWo cells pre-treated 48 hours) was “decreased”. Besides, in assay [3] (MeWo cells pre-treated at 1 μM for 48 hours before injection), the “reduction in metastatic colonization capacity” value is “more than 50 fold”. Besides, the “reduction in lung metastatic colonization” value in assay [3] (MeWo cells, oral in chow 20 mg/kg from 10 days before injection) is given as 31 fold. In assay [3] (MeWo, chow 20 mg/kg), the “survival times following metastatic colonization” value was “significantly prolonged”. For the same compound, the “suppression of colonization by incipient lung metastases” value in assay [3] (MeWo, diet 100 mg/kg from d42) is reported as 28 fold. The “number of macroscopic metastatic nodules formed” value in assay [3] (MeWo, diet 100 mg/kg from d42, lungs at d77) is given as “decreased”. Also, the “metastatic colonization by HT-144 and SK-Mel-334.2” value in assay [3] (oral in diet) is on record as “suppressed”. For the same compound, the “in vivo melanoma metastasis (lung, bioluminescence)” value in assay [3] (parental MeWo cells, chow diet 20 mg/kg) was “significant reduction”.
As to `O=S(=O)(c1ccccc1)N(CC(F)(F)F)c1ccc(C(O)(C(F)(F)F)C(F)(F)F)cc1` [T0901317 1], the “activity of luciferase reporter with ApoE promoter fused to ME.1 or ME.2” value in assay [1] is “enhance”. Besides, the “ability of melanoma cells to recruit endothelial cells” value in assay [2] was “consistently suppressed”.
As to “recombinant human ApoE3: recombinant human ApoE3 (4696, BioVision)”, the “ability of endothelial cells to migrate towards highly metastatic cancer cells” value in assay [2] (endothelial cells pre-treated 24 hours, 100 μM) is reported as “significantly reduced”. The “endothelial recruitment by metastatic LM2 cells” value in assay [2] (recombinant ApoE3 100 μM in cell media) is reported as “significantly suppressed”. Also, in assay [3] (MeWo-LM2 cells pre-incubated 24 hours at 100 μg/mL before injection, NOD-SCID mice), the “suppression of metastatic colonization” value is recorded as “over 300 fold”.
